A short description of assay [1]: Inhibition of Arabidopsis 4-hydroxyphenylpyruvate dioxygenase.
For assay [2], the target named is 4-hydroxyphenylpyruvate dioxygenase (Rattus norvegicus, UniProt P32755). Nature of the assay: Inhibition of rat 4-hydroxyphenylpyruvate dioxygenase.
Assay [3] can be described thus: Inhibition of anthranilate synthase.

The text below walks through data of ChEMBL document CHEMBL1137757, “Combinatorial chemistry in the agrosciences” (Bioorg Med Chem, 2009).

As usually defined, the IC50 is the concentration that gives 50% inhibition. A higher IC50 goes with weaker potency.

Sequence of 4-hydroxyphenylpyruvate dioxygenase (P32755 whole entry): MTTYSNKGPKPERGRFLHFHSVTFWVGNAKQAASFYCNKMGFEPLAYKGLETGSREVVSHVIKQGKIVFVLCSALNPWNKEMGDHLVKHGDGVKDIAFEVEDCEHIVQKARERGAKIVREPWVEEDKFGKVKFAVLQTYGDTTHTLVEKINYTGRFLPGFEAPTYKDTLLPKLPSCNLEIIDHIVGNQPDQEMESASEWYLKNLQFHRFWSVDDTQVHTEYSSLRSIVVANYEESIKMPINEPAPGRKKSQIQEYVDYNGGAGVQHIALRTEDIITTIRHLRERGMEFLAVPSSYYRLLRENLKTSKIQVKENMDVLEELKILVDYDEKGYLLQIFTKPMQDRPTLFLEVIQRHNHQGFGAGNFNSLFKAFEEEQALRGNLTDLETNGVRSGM

As for `O=C(NCCCCC1C(=O)/C(=C(\O)C2CC2)C(=O)N1Cc1ccc(F)cc1)c1ccc(Cl)nc1` (stereo unspecified), the IC50 in assay [1] turned out to be 0.02 µM; in assay [2], 3.9 µM.

For `O=C(NCCCCC1C(=O)/C(=C(\O)C2CCC2)C(=O)N1Cc1ccccc1)Nc1cccc(Cl)c1` (stereo unspecified), the results for the IC50 in assay [1] and in assay [2] were 0.158 µM and at least 10 µM, respectively.

For `O=C(O)c1cccc(/C(=N/OCCc2ccc(Cl)cc2)c2cccc(C(F)(F)F)c2)c1`, the IC50 in assay [3] was 3.2 µM.

In the case of `O=C(O)COc1ccccc1/C=N/OCc1cc(Cl)ccc1Cl`, in assay [3], half-maximal inhibition (IC50) required 3.2 µM. This lies in the single-digit micromolar range.
